Laboratory results from PubChem BioAssay AID1259407 (Chemical Carcinogenesis Research Information System (CCRIS), 2018).
Active and inactive are the calls of the source. No rule for the calls is given here.

Tested on: CCRIS mutagenicity, Ames/micronucleus/aberration tests
Test: CCRIS mutagenicity studies
Conditions: Test System: AMES SALMONELLA TYPHIMURIUM
[1] = Strain/Indicator: TA1538, Metabolic Activation: RAT, LIVER, S-9, AROCLOR 1254, Method: STANDARD PLATE
[2] = Strain/Indicator: TA100, Metabolic Activation: NONE, Method: PREINCUBATION

Measured: mutagenic call

CSCC[C@H](NC(=O)COc1ccc(Cl)cc1Cl)C(=O)O
inactive: Strain/Indicator: TA97, Metabolic Activation: RAT, LIVER, S-9, AROCLOR 1254, Method: STANDARD PLATE inactive; negative | Strain/Indicator: TA97, Metabolic Activation: WOODCHUCK, LIVER, S-9, 3-METHYLCHOLANTHRENE, Method: STANDARD PLATE inactive; negative | Strain/Indicator: TA98, Metabolic Activation: RAT, LIVER, S-9, AROCLOR 1254, Method: STANDARD PLATE inactive; negative | Strain/Indicator: TA98, Metabolic Activation: WOODCHUCK, LIVER, S-9, 3-METHYLCHOLANTHRENE, Method: STANDARD PLATE inactive; negative | Strain/Indicator: TA100, Metabolic Activation: RAT, LIVER, S-9, AROCLOR 1254, Method: STANDARD PLATE inactive; negative | Strain/Indicator: TA100, Metabolic Activation: WOODCHUCK, LIVER, S-9, 3-METHYLCHOLANTHRENE, Method: STANDARD PLATE inactive; negative | Strain/Indicator: TA1535, Metabolic Activation: RAT, LIVER, S-9, AROCLOR 1254, Method: STANDARD PLATE inactive; negative | Strain/Indicator: TA1535, Metabolic Activation: WOODCHUCK, LIVER, S-9, 3-METHYLCHOLANTHRENE, Method: STANDARD PLATE inactive; negative | [1] inactive; negative | Strain/Indicator: TA1538, Metabolic Activation: WOODCHUCK, LIVER, S-9, 3-METHYLCHOLANTHRENE, Method: STANDARD PLATE inactive; negative

COc1c2ccoc2c(OC)c2oc(=O)ccc12
inactive: Strain/Indicator: TA98, Metabolic Activation: NONE, Method: STANDARD PLATE inactive; negative | Strain/Indicator: TA98, Metabolic Activation: RAT, LIVER, S-9, PHENOBARBITAL, Method: STANDARD PLATE inactive; negative

O=[N+]([O-])c1ccc(Nc2ncnc3nc[nH]c23)cc1
inactive: Strain/Indicator: TA98(1,8-DNP), Metabolic Activation: NONE, Method: PREINCUBATION inactive; negative | Strain/Indicator: TA98(1,8-DNP), Metabolic Activation: RAT, LIVER, S-9, PCB, Method: PREINCUBATION inactive; negative | Strain/Indicator: TA98(NR), Metabolic Activation: NONE, Method: PREINCUBATION inactive; negative | Strain/Indicator: TA98(NR), Metabolic Activation: RAT, LIVER, S-9, PCB, Method: PREINCUBATION inactive; negative | Strain/Indicator: TA98, Metabolic Activation: NONE, Method: PREINCUBATION inactive; negative | Strain/Indicator: TA98, Metabolic Activation: RAT, LIVER, S-9, PCB, Method: PREINCUBATION inactive; negative | Strain/Indicator: TA100(1,8-DNP), Metabolic Activation: NONE, Method: PREINCUBATION inactive; negative | Strain/Indicator: TA100(1,8-DNP), Metabolic Activation: RAT, LIVER, S-9, PCB, Method: PREINCUBATION inactive; negative | Strain/Indicator: TA100(NR), Metabolic Activation: NONE, Method: PREINCUBATION inactive; negative | Strain/Indicator: TA100(NR), Metabolic Activation: RAT, LIVER, S-9, PCB, Method: PREINCUBATION inactive; negative | [2] inactive; negative | Strain/Indicator: TA100, Metabolic Activation: RAT, LIVER, S-9, PCB, Method: PREINCUBATION inactive; negative | Strain/Indicator: YG1020, Metabolic Activation: NONE, Method: PREINCUBATION inactive; negative | Strain/Indicator: YG1020, Metabolic Activation: RAT, LIVER, S-9, PCB, Method: PREINCUBATION inactive; negative | Strain/Indicator: YG1021, Metabolic Activation: NONE, Method: PREINCUBATION inactive; negative | Strain/Indicator: YG1021, Metabolic Activation: RAT, LIVER, S-9, PCB, Method: PREINCUBATION inactive; negative | Strain/Indicator: YG1024, Metabolic Activation: NONE, Method: PREINCUBATION inactive; negative | Strain/Indicator: YG1024, Metabolic Activation: RAT, LIVER, S-9, PCB, Method: PREINCUBATION inactive; negative | Strain/Indicator: YG1025, Metabolic Activation: NONE, Method: PREINCUBATION inactive; negative | Strain/Indicator: YG1025, Metabolic Activation: RAT, LIVER, S-9, PCB, Method: PREINCUBATION inactive; negative | Strain/Indicator: YG1026, Metabolic Activation: NONE, Method: PREINCUBATION inactive; negative | Strain/Indicator: YG1026, Metabolic Activation: RAT, LIVER, S-9, PCB, Method: PREINCUBATION inactive; negative | Strain/Indicator: YG1029, Metabolic Activation: NONE, Method: PREINCUBATION inactive; negative | Strain/Indicator: YG1029, Metabolic Activation: RAT, LIVER, S-9, PCB, Method: PREINCUBATION inactive; negative

N=c1ccc2c(-c3ccccc3C(=O)O)c3ccc(N)cc3oc-2c1
inactive: Strain/Indicator: TA1538, Metabolic Activation: NONE, Method: STANDARD PLATE inactive; negative | [1] inactive; negative

CC12OOC1(C)c1c(ccc3ccccc13)O2 (centres undefined)
inactive: [2] inactive; negative
